Measured values reported in patent publication US11512053B2, “Arginine methyltransferase inhibitors and uses thereof” (priority 2013, dated 2022).
Like-named read-outs stand apart in the source and are kept apart here.

Molecular target: full-length human PRMT8 isoform 1 (Homo sapiens, UniProt Q9NR22)
Experiment: PRMT8 Biochemical Assay (3H-SAM Flashplate, peptide substrate)
Details: read-out: Biochemical IC50 PRMT8
Excerpt: General Materials. S-adenosylmethionine (SAM), S-adenosylhomocysteine (SAH), bicine, Tween20, dimethylsulfoxide (DMSO), bovine skin gelatin (BSG), isopropyl-β-D-thiogalactopyranoside (IPTG), and Tris(2-carboxyethyl)phosphine hydrochloride solution (TCEP) were purchased from Sigma-Aldrich at the highest level of purity possible. ^3H-SAM was purchase from American Radiolabeled Chemicals with a specific activity of 80 Ci/mmol. 384-well streptavidin Flashplates were purchased from PerkinElmer.
Substrates. Peptide representative of human histone H4 residues 31-45 was synthesized with an N-terminal linker-affinity tag motif and a C-terminal amide cap by 21st Century Biochemicals. The peptide was purified by high-performance liquid chromatography (HPLC) to greater than 95% purity and confirmed by liquid chromatography mass spectrometry (LC-MS). The sequence was Biot-Ahx-[…]-amide (SEQ ID NO.:8).
The resulting construct encodes an N-terminal GST tag and a thrombin cleavage sequence ([…] […] […] […] SPEF) (SEQ ID NO.:9) fused directly to Met 1 of PRMT8.
Protein Expression. E. coli (BL21(DE3) Gold, Stratagene) made competent by the CaCl2) method were transformed with the PRMT8 construct and ampicillin selection. Protein over-expression was accomplished by growing the PRMT8 expressing E. coli clone and inducing expression with 0.3 mM IPTG at 16° C. The culture was grown for 12 hours, harvested by centrifugation, and stored at −80° C. for purification.
Protein Purification. […] GST-tagged PRMT8 was eluted with 50 mM Tris, 2 mM glutathione, pH 7.8. Pooled fractions were cleaved by thrombin (10U) and dialysed in buffer A. GST was removed by reloading the cleaved protein sample onto glutathione sepharose column and PRMT8 was collected in the flow-through fractions. PRMT8 was purified further by ceramic hydroxyapatite chromatography. The column was washed with 50 mM phosphate buffer, 100 mM NaCl, 5% glycerol, 5 mM β-mercaptoethanol, pH 7.8 and PRMT8 was eluted by 100 mM phosphate in the same buffer. Protein was concentrated and buffer was exchanged to 50 mM Tris, 300 mM NaCl, 10% glycerol, 5 mM β-mercaptoethanol, pH 7.8 by ultrafiltration. The purity of recovered protein was 89%.
General Procedure for PRMT8 Enzyme Assays on Peptide Substrates. The assays were all performed in a buffer consisting of 20 mM Bicine (pH=7.6), 1 mM TCEP, 0.005% BSG, and 0.002% Tween 20, prepared on the day of use. Compounds in 100% DMSO (1 ul) were spotted into a polypropylene 384-well V-bottom plates (Greiner) using a Platemate Plus outfitted with a 384-channel head (Thermo Scientific). DMSO (1 ul) was added to Columns 11, 12, 23, 24, rows A-H for the maximum signal control and 1 ul of SAH, a known product and inhibitor of PRMT8, was added to columns 11, 12, 23, 24, rows I-P for the minimum signal control. A cocktail (40 ul) containing the PRMT8 enzyme was added by Multidrop Combi (Thermo-Fisher). The compounds were allowed to incubate with PRMT8 for 30 min at room temperature, then a cocktail (10 ul) containing ^3H-SAM and peptide was added to initiate the reaction (final volume=51 ul). The final concentrations of the components were as follows: PRMT8 was 1.5 nM, ^3H-SAM was 50 nM, non-radiolabeled SAM was 550 nM, peptide was 150 nM, SAH in the minimum signal control wells was 1 mM, and the DMSO concentration was 2%. The assays were stopped by the addition of non-radiolabeled SAM (10 ul) to a final concentration of 400 uM, which dilutes the ^3H-SAM to a level where its incorporation into the peptide substrate is no longer detectable. 50 ul of the reaction in the 384-well polypropylene plate was then transferred to a 384-well Flashplate and the biotinylated peptides were allowed to bind to the streptavidin surface for at least 1 hour before being washed once with 0.1% Tween20 in a Biotek ELx405 plate washer. […]

[1] = single experiment or average of multiple experiments

full-length human PRMT8 isoform 1, sequence (Q9NR22 whole entry, canonical isoform): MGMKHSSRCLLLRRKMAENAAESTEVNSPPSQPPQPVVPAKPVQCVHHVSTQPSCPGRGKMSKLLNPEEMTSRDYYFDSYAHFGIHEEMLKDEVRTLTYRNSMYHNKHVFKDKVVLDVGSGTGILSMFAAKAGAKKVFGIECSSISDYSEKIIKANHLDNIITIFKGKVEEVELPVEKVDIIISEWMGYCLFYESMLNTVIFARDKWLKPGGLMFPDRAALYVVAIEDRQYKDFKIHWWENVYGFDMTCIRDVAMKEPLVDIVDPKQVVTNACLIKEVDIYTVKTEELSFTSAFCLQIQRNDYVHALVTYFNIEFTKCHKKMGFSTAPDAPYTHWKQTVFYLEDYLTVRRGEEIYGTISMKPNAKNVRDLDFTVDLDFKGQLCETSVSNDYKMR

Compound | IC50 | IC50 [1]
CNCCN(C)Cc1c[nH]nc1[C@H]1CC[C@H](O)C2(CCCCC2)C1 (racemic) [Compound 184, (1S,4S)-4-[4-({methyl[2-(methylamino)ethyl]amino}methyl)-1H-pyrazol-3-yl] spiro[5.5]undecan-1-ol] | < 100 nM | 47.3 nM
CNCCN(C)Cc1c[nH]nc1[C@H]1CC[C@@H](O)C2(CCCCC2)C1 (single isomer, unassigned) [Compound 183] | < 100 nM | 39.4 nM
CN(CCN)Cc1c[nH]nc1CCc1ccccc1 [Compound 9] | 101 to 1000 nM | 760 nM
CNCCN(C)Cc1c[nH]nc1[C@H]1CC[C@]2(CCC(C)(C)O2)CC1 [Compound 104] | < 100 nM | 11.6 nM
CNCCN(C)Cc1c[nH]nc1[C@H]1CC[C@@]2(CCOC2(C)C)CC1 [Compound 106, Methyl [2-(methylamino)ethyl]([3-[(5R,8R)-1,1-dimethyl-2-oxaspiro[4.5]decan-8-yl]-1H-pyrazol-4-yl]methyl)amine] | < 100 nM | 14.5 nM
CNCCN(C)Cc1c[nH]nc1[C@H]1CC[C@@H](N(CC2CCOCC2)C(=O)CC(C)C)CC1 [Compound 107] | < 100 nM | 55.4 nM
CCC(=O)N(CC1CCOCC1)[C@H]1CC[C@@H](c2n[nH]cc2CN(C)CCNC)CC1 [Compound 108] | 101 to 1000 nM | 252 nM
CCC(=O)N(CC1CCOCC1)[C@H]1CC[C@H](c2n[nH]cc2CN(C)CCNC)CC1 [Compound 109] | < 100 nM | 56 nM
CNCCN(C)Cc1c[nH]nc1C1CCC(=O)N(CCc2ccccc2)C1 (stereo not shown) [Compound 110] | < 100 nM | 42.9 nM
CNCCN(C)Cc1c[nH]nc1[C@H]1CC[C@]2(CCN(Cc3ccc(OCCOC)cc3)C2=O)CC1 [Compound 111] | < 100 nM | 59.9 nM
CNCCN(C)Cc1c[nH]nc1C1CCCC(COCCOC)C1 (stereo not shown) [Compound 112] | < 100 nM | 69.2 nM
CNCCN(C)Cc1c[nH]nc1C1CCCC(COCCC(O)CO)C1 (stereo not shown) [Compound 113] | 101 to 1000 nM | 119 nM
CNCCN(C)Cc1c[nH]nc1C1CCC(N(CC(C)C)C(=O)CC2CCOCC2)CC1 (stereo not shown) [Compound 114] | 101 to 1000 nM | 340 nM
CNCCN(C)Cc1c[nH]nc1C1CCC(=O)N(Cc2ccccc2)C1 (stereo not shown) [Compound 115] | 101 to 1000 nM | 196 nM
CNCCN(C)Cc1c[nH]nc1[C@H]1CC[C@H](OCCOc2ccc(OCCOC)cc2)CC1 [Compound 116] | < 100 nM | 11.8 nM
CNCCN(C)Cc1c[nH]nc1C1CCC(=O)N(CCC(C)C)C1 (stereo not shown) [Compound 117] | 101 to 1000 nM | 143 nM
CNCCN(C)Cc1c[nH]nc1C1CC(OC(C)C)CC(OC(C)C)C1 (stereo not shown) [Compound 118] | > 10000 nM | > 10000 nM
CCOCC1CC(COCC)CC(c2n[nH]cc2CN(C)CCNC)C1 (stereo not shown) [Compound 119] | 101 to 1000 nM | 728 nM
CNCCN(C)Cc1c[nH]nc1[C@H]1CC[C@@]2(CCN(Cc3ccc(OCCOC)cc3)C2=O)CC1 [Compound 120] | < 100 nM | 25.1 nM
CNCCN(C)Cc1c[nH]nc1C1CCC2(CC1)OC(C)CC(C)O2 (stereo not shown) [Compound 121] | < 100 nM | 32.6 nM
CNCCN(C)Cc1c[nH]nc1C1CC(OCC(C)C)CC(OCC(C)C)C1 (stereo not shown) [Compound 122] | 3010 to 10000 nM | 8370 nM
CNCCN(C)Cc1c[nH]nc1[C@H]1CC[C@]2(CCN(Cc3ccc(F)cc3)C2=O)CC1 [Compound 123] | < 100 nM | 24.7 nM
CNCCN(C)Cc1c[nH]nc1[C@H]1CC[C@]2(CCN(CC(C)C)C2=O)CC1 [Compound 124] | < 100 nM | 10.8 nM
CNCCN(C)Cc1c[nH]nc1[C@H]1CC[C@@]2(CCN(Cc3ccc(F)cc3)C2=O)CC1 [Compound 125] | < 100 nM | 9 nM
CNCCN(C)Cc1c[nH]nc1[C@H]1CC[C@@]2(CCN(Cc3cc(F)cc(F)c3)C2=O)CC1 [Compound 126] | < 100 nM | 6.5 nM

Compound | IC50 | IC50 [1]
CNCCN(C)Cc1c[nH]nc1[C@H]1CC[C@@]2(CCN(Cc3ccccc3)C2=O)CC1 [Compound 127] | < 100 nM | 47.8 nM
CNCCN(C)Cc1c[nH]nc1[C@H]1CC[C@]2(CCN(Cc3ccccc3)C2=O)CC1 [Compound 128] | < 100 nM | 8.2 nM
CNCCN(C)Cc1c[nH]nc1[C@H]1CC[C@@]2(CCN(CC(C)C)C2=O)CC1 [Compound 129] | < 100 nM | 83.7 nM
CNCCN(C)Cc1c[nH]nc1C1CCC2(CC1)CCC(F)(F)CC2 [Compound 130] | < 100 nM | 4.5 nM
CCCOC1CC(OCCC)CC(c2n[nH]cc2CN(C)CCNC)C1 (stereo not shown) [Compound 131] | 1010 to 3000 nM | 1970 nM
CCOC1CC(OCC)CC(c2n[nH]cc2CN(C)CCNC)C1 (stereo not shown) [Compound 132] | 3010 to 10000 nM | 4330 nM
CNCCN(C)Cc1c[nH]nc1C1CCC(OCCOc2ccccc2)CC1 (stereo not shown) [Compound 136] | < 100 nM | 6.8 nM
CNCCN(C)Cc1c[nH]nc1C1CCC2(CCCCO2)CC1 (stereo not shown) [Compound 137] | < 100 nM | 16.2 nM
CNCCN(C)Cc1c[nH]nc1C1CC(COC)CC(COC)C1 (stereo not shown) [Compound 138] | 1010 to 3000 nM | 1430 nM
CNCCN(C)Cc1c[nH]nc1[C@H]1CC[C@H](OC2CCCCC2)CC1 [Compound 139] | 101 to 1000 nM | 116 nM
CNCCN(C)Cc1c[nH]nc1[C@H]1CC[C@@H](OC2CCCCC2)CC1 [Compound 140] | < 100 nM | 33.9 nM
CNCCN(C)Cc1c[nH]nc1[C@H]1CC[C@@]2(CCOC2)CC1 [Compound 141] | < 100 nM | 29.7 nM
CNCCN(C)Cc1c[nH]nc1[C@H]1CC[C@]2(CCOC2)CC1 [Compound 142] | < 100 nM | 15.9 nM
CNCCN(C)Cc1c[nH]nc1[C@H]1CC[C@@]2(CCCO2)CC1 [Compound 143] | < 100 nM | 33 nM
CNCCN(C)Cc1c[nH]nc1C1CCC2(CC1)CC2 [Compound 144] | < 100 nM | 78.4 nM
CNCCN(C)Cc1c[nH]nc1C1CCC2(CC1)C(=O)NC(=O)N2C (stereo not shown) [Compound 161] | < 100 nM | 37.4 nM
CCN1C(=O)N(C)CC12CCC(c1n[nH]cc1CN(C)CCNC)CC2 (stereo not shown) [Compound 162] | < 100 nM | 92.7 nM
CNCCN(C)Cc1c[nH]nc1C1CCC2(CC1)CCN(CCC(C)C)C2=O (stereo not shown) [Compound 163] | < 100 nM | 15.8 nM
CNCCN(C)Cc1c[nH]nc1C1CCC2(CC1)CCN(CC(C)C)C2=O (stereo not shown) [Compound 164] | < 100 nM | 19.1 nM
CNCCN(C)Cc1c[nH]nc1C1CCC2(CC1)CC(=O)N(CCC(C)C)C2 (stereo not shown) [Compound 165] | < 100 nM | 18.1 nM
CNCCN(C)Cc1c[nH]nc1[C@H]1CC[C@@H](COC)CC1 [Compound 166] | < 100 nM | 23 nM
CNCCN(C)Cc1c[nH]nc1[C@H]1CC[C@H](COC)CC1 [Compound 167] | < 100 nM | 13 nM
CCOC1CC2(CCC(c3n[nH]cc3CN(C)CCNC)CC2)CC1OCC (stereo not shown) [Compound 168] | < 100 nM | 28.1 nM
CNCCN(C)Cc1c[nH]nc1C1CCC(CC(C)C)CC1 (stereo not shown) [Compound 169] | < 100 nM | 10.2 nM
CNCCN(C)Cc1c[nH]nc1C1CCC2(CC1)NC(=O)N(C)C2=O (stereo not shown) [Compound 170] | < 100 nM | 23.7 nM
